Results from paper PMC9837035 (Nature Communications, 2023).

Legend:
[1] = system: H3K9me2 in CD34+ cells; assay: Western blotting of H3K9me2 in CD34+ cells; assay type: cell-based, human
Description: HUDEP-2 cells and HiDEP-1 cells were grown in Stemline II Hematopoietic Stem Cell Expansion Medium (Sigma) supplemented with 50 ng/mL recombinant stem cell factor (SCF; R&D systems), 3 IU/mL recombinant erythropoietin (EPO; Kyowa Kirin), 1 μM dexamethasone (Dex; Sigma), and 1 μg/mL doxycycline (Sigma). A total of 1 × 10^5 human CD34^+ progenitor cells derived from bone marrow or peripheral blood (Lonza) were cultured on 35-mm dishes (BD Falcon) in StemSpan SFEMII medium with 50 ng/mL SCF, 5 IU/mL EPO, and 10 ng /mL interleukin 3 (IL-3; R&D systems). The medium was changed on day 4 to SCF, EPO, and 1 μM Dex, and the cells were transferred to 60-mm dishes (BD Falcon). Seven days after the onset of differentiation, cells were counted and 1 × 10^6 cells were re-plated on 100-mm dishes (BD Falcon) with SCF, EPO, and Dex. The rat myoblast cell line H9c2, HEK293T, and PLAT-E cells were maintained in Dulbecco’s modified Eagle’s medium (Thermo Fisher Scientific) supplemented with 10% heat-inactivated fetal bovine serum (FBS) and penicillin/streptomycin. All cells were cultured at 37 °C under 5% CO2.
Preparation of cell lysates and western blotting were performed as described previously. […] The immune complexes were detected with the Immobilon Western Chemiluminescent HRP Substrate (Millipore). Luminescence was analyzed on a FUSION SOLO S (Vilber). […]

[2] = system: HUDEP-2 cells; assay: RNA-seq analysis of HUDEP-2 cells; assay type: cell-based, human
Description: Total RNAs were extracted using an RNeasy Plus Mini Kit (QIAGEN). RNA-seq experiments were performed by GENEWIZ or Rhelixa. Gene Ontology (GO) analysis in Supplementary Fig. 7a, the statistical test was performed by Wallenius in goseq software. In Supplementary Tables 8(1-3), the statistical test (adjp) was determined using multiple comparisons analysis, Benjamini-Hochberg adjusted FDR test of the default of AltAnalyze (Ver. 2.0).

[3] = system: H3K9me2 in peripheral blood; assay: H3K9me2 levels in peripheral blood of treated mice; assay type: in vivo
Description: Preparation of cell lysates and western blotting were performed as described previously. Protein from cells lysates in lysis buffer (50 mM Tris-HCl (pH 7.5), 150 mM NaCl, 5 mM EDTA, 0.1% NP-40, 1 mM dithiothreitol) were separated by sodium dodecyl sulfate–polyacrylamide gel electrophoresis (SDS-PAGE) and transferred to a polyvinylidene difluoride (PVDF) membrane (Millipore) by electroblotting. The membranes incubated with primary antibodies overnight at 4 °C and secondary antibodies for 1 h at room temperature. The immune complexes were detected with the Immobilon Western Chemiluminescent HRP Substrate (Millipore). Luminescence was analyzed on a FUSION SOLO S (Vilber). Western blot bands were visualized using Evolution Capt software (M&S Instruments Inc.). Primary antibodies used were anti-G9a (1:1000, CST, #3306), anti–α-tubulin (1:5000, Abcam, ab18251), anti-H3K9me2 (1:3000, Abcam, ab1220), anti-H3 (1:5000, Abcam, ab1791), anti-H3K27me3 (1:3000, Sigma, 07-449), anti-GLP (1:1000, CST, #35005), anti-FLAG (100 ng/ml, Fujifilm, 01422383), anti-His (1:5000, MBL, PM032), anti-BCL11A (1:1000, abcam, ab19487), anti-ZBTB7A (1:1000, CST, #50565), anti-CHD3 (1:1000, Novus Biologicals, NB100-60412), and anti-CHD4 (1:1000, abcam, ab240640). […]
The dosing solution contained 15% DMSO, 17.5% Cremophor EL, 8.75% EtOH, 8.75% HCO-40, and 50% PBS. […] The weight of each mouse was measured every 3 or 4 days.

[4] = system: H3K27me3 in HUDEP-2 cells; assay: Western blotting of H3K27me3; assay type: cell-based, human; conditions: peer review file
Description: Preparation of cell lysates and western blotting were performed as described previously. Protein from cells lysates in lysis buffer (50 mM Tris-HCl (pH 7.5), 150 mM NaCl, 5 mM EDTA, 0.1% NP-40, 1 mM dithiothreitol) were separated by sodium dodecyl sulfate–polyacrylamide gel electrophoresis (SDS-PAGE) and transferred to a polyvinylidene difluoride (PVDF) membrane (Millipore) by electroblotting. The membranes incubated with primary antibodies overnight at 4 °C and secondary antibodies for 1 h at room temperature. The immune complexes were detected with the Immobilon Western Chemiluminescent HRP Substrate (Millipore). Luminescence was analyzed on a FUSION SOLO S (Vilber). Western blot bands were visualized using Evolution Capt software (M&S Instruments Inc.). Primary antibodies used were anti-G9a (1:1000, CST, #3306), anti–α-tubulin (1:5000, Abcam, ab18251), anti-H3K9me2 (1:3000, Abcam, ab1220), anti-H3 (1:5000, Abcam, ab1791), anti-H3K27me3 (1:3000, Sigma, 07-449), anti-GLP (1:1000, CST, #35005), anti-FLAG (100 ng/ml, Fujifilm, 01422383), anti-His (1:5000, MBL, PM032), anti-BCL11A (1:1000, abcam, ab19487), anti-ZBTB7A (1:1000, CST, #50565), anti-CHD3 (1:1000, Novus Biologicals, NB100-60412), and anti-CHD4 (1:1000, abcam, ab240640). Uncropped scans of all of the blots are available in Source Data file.

[5] = target: DNMT1 (Homo sapiens, UniProt P26358); assay: biochemical
Chain of DNMT1 (P26358 whole entry): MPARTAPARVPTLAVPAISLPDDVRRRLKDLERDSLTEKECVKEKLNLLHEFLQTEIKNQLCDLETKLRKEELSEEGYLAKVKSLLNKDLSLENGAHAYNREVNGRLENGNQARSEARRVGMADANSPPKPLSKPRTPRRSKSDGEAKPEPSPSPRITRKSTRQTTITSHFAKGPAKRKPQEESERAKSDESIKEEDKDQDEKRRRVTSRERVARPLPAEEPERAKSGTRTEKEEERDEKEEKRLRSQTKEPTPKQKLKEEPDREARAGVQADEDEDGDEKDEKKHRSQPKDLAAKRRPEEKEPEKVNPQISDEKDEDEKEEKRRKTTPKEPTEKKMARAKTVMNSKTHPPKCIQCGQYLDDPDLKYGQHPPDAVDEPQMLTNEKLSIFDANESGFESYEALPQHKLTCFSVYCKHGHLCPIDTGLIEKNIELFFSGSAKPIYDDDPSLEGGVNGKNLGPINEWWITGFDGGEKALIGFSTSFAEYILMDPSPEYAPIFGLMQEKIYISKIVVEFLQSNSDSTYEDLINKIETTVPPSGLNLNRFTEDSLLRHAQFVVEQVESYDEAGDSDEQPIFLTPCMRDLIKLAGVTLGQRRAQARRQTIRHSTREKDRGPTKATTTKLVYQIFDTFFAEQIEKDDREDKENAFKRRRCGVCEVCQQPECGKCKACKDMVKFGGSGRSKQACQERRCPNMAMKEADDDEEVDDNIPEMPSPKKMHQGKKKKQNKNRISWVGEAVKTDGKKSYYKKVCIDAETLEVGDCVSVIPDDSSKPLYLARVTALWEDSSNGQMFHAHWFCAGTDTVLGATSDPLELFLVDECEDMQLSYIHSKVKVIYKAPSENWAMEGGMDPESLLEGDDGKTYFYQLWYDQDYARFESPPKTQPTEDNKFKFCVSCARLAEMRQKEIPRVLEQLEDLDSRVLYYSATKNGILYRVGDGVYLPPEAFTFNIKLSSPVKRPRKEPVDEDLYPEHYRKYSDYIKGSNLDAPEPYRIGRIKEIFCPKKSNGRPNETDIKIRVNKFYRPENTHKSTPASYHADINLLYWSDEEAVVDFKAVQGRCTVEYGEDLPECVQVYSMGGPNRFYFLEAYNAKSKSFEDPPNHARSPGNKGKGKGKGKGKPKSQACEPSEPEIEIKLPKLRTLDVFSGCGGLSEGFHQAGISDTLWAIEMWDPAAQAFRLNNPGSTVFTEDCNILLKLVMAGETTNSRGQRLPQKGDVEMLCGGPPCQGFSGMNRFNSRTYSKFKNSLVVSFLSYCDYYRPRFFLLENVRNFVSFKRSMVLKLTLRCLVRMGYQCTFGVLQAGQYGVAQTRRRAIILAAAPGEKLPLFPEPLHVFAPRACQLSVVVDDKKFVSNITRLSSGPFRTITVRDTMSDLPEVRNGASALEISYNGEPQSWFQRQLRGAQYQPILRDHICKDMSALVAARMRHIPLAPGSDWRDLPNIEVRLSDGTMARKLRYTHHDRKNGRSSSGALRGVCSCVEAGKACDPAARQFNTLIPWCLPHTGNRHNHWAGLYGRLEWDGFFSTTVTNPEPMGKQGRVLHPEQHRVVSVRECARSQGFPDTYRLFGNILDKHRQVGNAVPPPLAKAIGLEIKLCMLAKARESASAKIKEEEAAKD

NC(=O)NO [Hydroxyurea, hydroxyurea]
H3K9me2 level [1]: did not affect the H3K9me2 level

Cc1c(C(=O)NC(CCC2CC2)C(=O)Nc2ccc(C#N)cc2)[nH]c2c1C(=O)CC(C)(C)C2 (stereo not shown) [RK-701]
FoldChange BCL11A ([2]; HUDEP-2): 1.17±0.09 | FoldChange BGLT3 ([2]; HUDEP-2): 3.40±0.34 | FoldChange CHD3 ([2]; HUDEP-2): 0.88±0.02 | FoldChange CHD4 ([2]; HUDEP-2): 1.00±0.02 | FoldChange DNMT1 ([2]; HUDEP-2): 0.97±0.02 | FoldChange GATA1 ([2]; HUDEP-2): 0.97±0.04 | FoldChange GATAD2A ([2]; HUDEP-2): 0.96±0.03 | FoldChange GATAD2B ([2]; HUDEP-2): 1.02±0.04 | FoldChange HBA1 ([2]; HUDEP-2): 1.15±0.13 | FoldChange HBA2 ([2]; HUDEP-2): 1.19±0.04 | FoldChange HBBP1 ([2]; HUDEP-2): 0.99±0.02 | FoldChange HBD ([2]; HUDEP-2): 1.01±0.03 | FoldChange HBE1 ([2]; HUDEP-2): 4.70±0.71 | FoldChange HBG1 ([2]; HUDEP-2): 2.51±0.58 | FoldChange HBG2 ([2]; HUDEP-2): 3.33±0.28 | FoldChange HBM ([2]; HUDEP-2): 0.96±0.04 | FoldChange HBQ1 ([2]; HUDEP-2): 1.09±0.05 | FoldChange HBZ ([2]; HUDEP-2): 0.31±0.08 | FoldChange HDAC1 ([2]; HUDEP-2): 0.96±0.03 | FoldChange HDAC2 ([2]; HUDEP-2): 0.95±0.03 | FoldChange IKZF1 ([2]; HUDEP-2): 1.07±0.01 | FoldChange KLF1 ([2]; HUDEP-2): 1.02±0.02 | FoldChange LDB1 ([2]; HUDEP-2): 1.03±0.04 | FoldChange LIN28B ([2]; HUDEP-2): 0.91±0.07 | FoldChange LMO2 ([2]; HUDEP-2): 1.28±0.04 | FoldChange MBD2 ([2]; HUDEP-2): 1.03±0.02 | FoldChange MBD3 ([2]; HUDEP-2): 0.96±0.02 | FoldChange MIR26B ([2]; HUDEP-2): 0.96±0.78 | FoldChange MTA1 ([2]; HUDEP-2): 0.92±0.04 | FoldChange MTA2 ([2]; HUDEP-2): 0.95±0.02 | FoldChange MYB ([2]; HUDEP-2): 0.91±0.01 | FoldChange NR2C1 ([2]; HUDEP-2): 1.11±0.04 | FoldChange NR2C2 ([2]; HUDEP-2): 0.97±0.04 | FoldChange RBBP4 ([2]; HUDEP-2): 0.96±0.03 | FoldChange RBBP7 ([2]; HUDEP-2): 0.98±0.03 | FoldChange SOX6 ([2]; HUDEP-2): 1.70±0.07 | FoldChange TAL1 ([2]; HUDEP-2): 1.12±0.04 | FoldChange TCF3 ([2]; HUDEP-2): 0.92±0.02 | FoldChange ZBTB7A ([2]; HUDEP-2): 0.98±0.04 | FoldChange ZFPM1 ([2]; HUDEP-2): 0.90±0.09 | number of genes transcriptionally upregulated ([2]; HUDEP-2): 204 genes | FoldChange HBB ([2]; HUDEP-2, 1 μM, 4 days): 1.13±0.05 | log2FoldChange CTD-2643I7.1 (BGLT3) ([2]; HUDEP-2, 1 μM, 4 days): 1.72 | log2FoldChange HBE1 ([2]; HUDEP-2, 1 μM, 4 days): 2.16 | log2FoldChange HBG1 ([2]; HUDEP-2, 1 μM, 4 days): 1.23 | log2FoldChange HBG2 ([2]; HUDEP-2, 1 μM, 4 days): 1.73 | log2FoldChange HBZ ([2]; HUDEP-2, 1 μM, 4 days): -1.67 | H3K9me2 levels in peripheral blood cells [3]: significant decrease | H3K27me3 ([4]; 0.1 µM): no effect on H3K27me3 | H3K27me3 [4]: slightly decrease H3K27me3 only at high | IC50 [5]: > 100 µM
